Laboratory results published in US20210015793A1, “COMPOUNDS FOR TREATING CNS- AND NEURODEGENERATIVE DISEASES” (ETH ZURICH, priority 2018, published 2021).

System: Mpp1
Assay: Immunoblot of Mpp1 protein content in PBMN cells of aged B6 mice
Type: in vivo, mouse
Conditions: 18-month-old B6 mice treated for 15 months in drinking water
Text: For protein separation by SDS-PAGE (Laemmli system), the protein pellet can be dissolved in SDS-PAGE sample buffer supplemented with SDS. As an alternative, sample buffer for native gel electrophoresis can be added. According to the original protocol, the SDS-PAGE Laemmli sample buffer contains 2% SDS, 0.1 M DTT (or 5% mercaptoethanol). To improve disaggregation of aggregated proteins, the buffer can be supplemented without or with urea ranging from about 0 M-8 M, preferably about 6 M urea and incubated for about 10 min to 24 h, preferably about 90 min at room temperature. Proteins can be stored frozen (about […]) at a concentration ranging from about 0.01-100 mg/ml, preferably about 0.5 mg-1 mg/ml, for further use. It may be further desirable to dilute the solubilisate, for example, diluting the supernatant solubilisate by 1:1-1:20, preferably 1:5, in a suitable buffer as described above (preferably supplemented with protease inhibitors). Before immunoblot detection of proteins, proteins are separated. For separation of proteins, one- or two-dimensional SDS-PAGE can be applied. […]

**Q.** Which “Mpp1 protein content in PBMN cells” value does the source give for `O=C(C1=C(O)C(c2ccccc2)N(c2ccc3c(c2)OCO3)C1=O)C1CC1` (centres unmarked) [Compound-1, 1-(1,3-benzodioxol-5-yl)-4-(cyclopropane-carbonyl)-3-hydroxy-2-phenyl-2H-pyrrol-5-one] here?
**A.** significantly decreased the content of the senescence marker, Mpp1

**Q.** `O=C(C1=C(O)C(c2ccc(F)cc2)N(c2ccc3c(c2)OCO3)C1=O)C1CC1` (centres unmarked) [Compound-1F, 1-(1,3-Benzodioxol-5-yl)-4-(cyclopropanecarbonyl)-2-(4-fluorophenyl)-3-hydroxy-2H-pyrrol-5-one] was tested. Which “Mpp1 protein content in PBMN cells” value did it give?
**A.** significantly decreased the content of the senescence marker, Mpp1
